Reference: US12350272B2, “Pyridopyrimidinone derivatives for use as AXL inhibitors” (OSCOTEC INC., priority 2018, dated 2025)
Where a name gives a salt, the structure may show the parent alone. Read-outs that look alike come from different tables or passages of the source.

Key:
[1] = target: JAK2 (Homo sapiens (Human), UniProt O60674); experiment: Biochemical inhibition of JAK2; settings: Table 2, range of IC50 value
[2] = tested on: MDA-MB-231 cells; experiment: Cell viability assay (ATPLite), MDA-MB-231; type: cell-based, human; settings: for GI50: 72 hour incubation
Excerpt: (§1) Axl is a member of the TAM (TYRO3-Axl-MER) family of receptor tyrosine kinases, which, when activated, can increase tumor cell survival, proliferation, migration and invasion, angiogenesis, and tumor-host interactions. Upon GAS6 binding to Axl, Axl subsequently activates the signaling pathways downstream such as phosphoinositide 3-kinase (PI3K), RAt sarcoma (RAS), and extracellular signal regulated kinase (ERK).
(§2) This cell line was maintained with an Roswell Park Memorial Institute (RPMI) medium (HYCLONE™) containing 10% bovine calf serum (BCS; HYCLONE™) supplemented iron. The cells were seeded at 2×10^4 cells in 96-well culture plates, and serially diluted compounds were then added. After a 72 hour incubation period at 37° C., cell viability was measured using the ATPLite 1 step assay (PERKIN-ELMER™) that is based on the quantification of ATP from viable cells.

[3] = tested on: Hs578T cells; experiment: Cell viability assay (ATPLite), Hs578T; type: cell-based, human; settings: 72 hour incubation
Excerpt: as §1, §2

[4] = tested on: mouse 4T1 breast cancer cells; experiment: 4T1 spontaneous (orthotopic) metastasis model, combination with anti-PD-1 antibody; type: in vivo, BALB/c female mice
Excerpt: A day before cell inoculation, fur on the right flank of BALB/C mice was depilated using hair trimmer. On the following day, the skin area around the injection site was disinfected by mildly swabbing with surgical spirit. To establish allografts, BALB/c female mice (7-weeks age) were implanted orthotopically into the mammary gland with 5×10^6 syngeneic 4T1 cells. Mice were sacrificed when average tumor volume reached 1500 mm^3.
Mice were randomized based on tumor volume (˜50 mm^3) and five mice were allocated per group. Tumor grafts were measured after approximately 2 days of cell inoculation when they become palpable. […] After treatment for 28 days, all mice were sacrificed. 4T1 lung metastasis was determined by counting the tumor nodules through H&E staining. 4T1 solid tumor on primary site was measured by a tumor 3D scanner, TM900 (Peria, Belgium). […] The metastatic nodule was measured by microscopic observation.
BALB/c female mice (7-weeks age) were implanted orthotopically into the mammary gland with 5×10^6 syngeneic 4T1 cells. […] Mice were sacrificed on day 28 and lung metastasis was evaluated by counting nodules.

[5] = tested on: mouse B16F10 melanoma cells; experiment: B16F10 lung in vivo metastasis model; settings: oral 30 mg/kg/day
Experimental: (§4) Compounds of Formula (I) as obtained above were tested in metastasis models using mouse B16F10 melanoma and CT26-Luciferase colon cancer cells. […] Cell line was harvested by trypsinization when they reached 70-80% confluence. A day before cell inoculation, C57BL/6 mice were maintained under pathogen-free conditions according to SPF guideline (room temperature, 40-60% humidity) and housed in the ABMRC at the Yonsei University.
(§5) Mice were randomized, and three mice for B16F10 model and five mice for CT26 peritoneal metastasis model were allocated per group. Lung metastasis was measured after 14 days of cell inoculation. […] Vehicle for oral administration consists of 10% sodium sulphobutylether β-cyclodextrine (SBECD) in 50 mM citrate buffer (pH 3.0). Animals were monitored for mortality and clinical signs (such as illness and behavioral changes) daily throughout the study. In B16F10 model, after mice sacrificed, organs were fixed with 10% of Formalin solution for 1 day. The FFPE block was sliced by 4 μm thinness on coating slides for applying the H&E staining. Then, tumor nodule counting was calculated. CT26 metastasis was determined by measuring luminescence intensity in peritoneal cavity.

[6] = tested on: CT26-Luciferase colon cancer cells; experiment: CT26 peritoneal in vivo metastasis model; settings: 30 mg/kg/day
Experimental: as §4, §5

[7] = target: Truncated human Axl (Homo sapiens, UniProt P30530); experiment: Kinase inhibition assay (inhibition of enzymatic Axl kinase activity); type: biochemical
Experimental: Compounds of Formula (I) as obtained above were assayed to measure their capacity to inhibit Axl kinase. Axl belongs to the recently identified TYRO-3, Axl, MERTK (TAM) receptor tyrosine kinase (RTK) family. […] Upon GAS6 binding, Axl homodimerizes and subsequently induces several downstream signaling pathways involved in cell proliferation, migration, invasion, anti-apoptosis, angiogenesis, metastasis, and therapeutic resistance. Upregulation of Axl has been reported in a wide variety of cancer cell lines as well as in cancer specimens from patients with breast cancer, acute leukemia, colorectal cancer, lung cancer, melanoma, ovarian cancer, or prostate cancer, among others.
Compounds of Formula (I) as obtained above were initially diluted to […] in 100% DMSO (CALBIOCHEM™) for storage and made into kinase buffer solution to create a compound concentration ranging from 1 uM and 10 uM. Serial dilutions of the compounds were dispensed into a 96-well plate (GREINER BIOSCIENCES™) at 6 μL each. Truncated human Axl (CARNA BIOSCIENCES™) were diluted in kinase buffer and added to the compound solutions and pre-incubated for 30 minutes at room temperature. […] The reaction mixture was incubated for 1 hour. Following the incubation, the stop solution made with EDTA, water, and Lance detection buffer ([…]™) were added (12 μL each) to stop phosphorylation.

[8] = tested on: MDA-MB-231 breast cancer cell line; experiment: Transwell migration assay; type: cell-based, human; settings: even at 0.03 μM, compared to R428
Experimental: (§3) In order to test whether the compounds of Formula (I) show the effect on inhibition of metastasis, cell migratory and invasive behaviors analyzed using transwell and matrigel invasion assays in MDA-MB-231 breast cancer cell line. […] Cell migration was performed by the transwell assay (BD Biosciences, CA, USA). Briefly, 5×10^4 cells in serum-free RPMI-1640 were seeded on a membrane (8.0-μm pore size) inserted in the wells of a 24-well plate. RPMI-1640 containing 10% FBS was added to the lower chamber of each well. After 24 h, cells in the upper chamber were removed by cotton swab and the cells that had reached the underside of the membrane were fixed and stained with crystal violet (1% in methyl alcohol) for 10 min. The cells located on the underside of the filter (5 fields/filter) were counted. The cell invasion assay was carried out similarly, except that the matrigel (BD Biosciences, CA, USA) was added to each well 6 h before cells were seeded on the membrane. After 48 h, matrigel and any remaining cells in the upper chamber were removed by cotton swabs. Cells on the lower surface of the membrane were fixed and stained as described above. Data are representative of results from three independent fields of stained membrane.

[9] = tested on: MDA-MB-231 breast cancer cell line; experiment: Matrigel invasion assay; type: cell-based, human; settings: even at 0.03 μM, compared to R428
Experimental: as §3

[10] = tested on: mouse breast 4T1 cancer cells; experiment: Anti-tumor activity in breast 4T1 syngeneic in vivo cancer model; settings: BALB/C mice
Experimental: A day before cell inoculation, fur on the right flank of BALB/C mice was depilated using hair trimmer. On the following day, the skin area around the injection site was disinfected by mildly swabbing with surgical spirit. To establish allografts, cells were suspended in serum-free media and mixed 1:1 with matrigel to obtain 1×10^6 cells/100 μL. […] Mice were randomized based on tumor volume and six mice were allocated per group. Tumor grafts were measured after approximately 5 days of cell inoculation when they become palpable. […] Tumor growth inhibition (TGI) was calculated as follows: % TGI=[1−(Treatment TVFinal−Treatment TVinitial)/(Control TVFinal−Control TVInitial)]*100

[11] = tested on: 4T1; experiment: Anti-tumor activity in immunodeficient mice; type: in vivo; settings: 30 mg/kg/day
[12] = Table 2, range of IC50 value, read-out: Axl
[13] = day 15, oral QD 30 mg/kg/day for 14 days

Truncated human Axl, sequence (P30530 26-894 limits assumed): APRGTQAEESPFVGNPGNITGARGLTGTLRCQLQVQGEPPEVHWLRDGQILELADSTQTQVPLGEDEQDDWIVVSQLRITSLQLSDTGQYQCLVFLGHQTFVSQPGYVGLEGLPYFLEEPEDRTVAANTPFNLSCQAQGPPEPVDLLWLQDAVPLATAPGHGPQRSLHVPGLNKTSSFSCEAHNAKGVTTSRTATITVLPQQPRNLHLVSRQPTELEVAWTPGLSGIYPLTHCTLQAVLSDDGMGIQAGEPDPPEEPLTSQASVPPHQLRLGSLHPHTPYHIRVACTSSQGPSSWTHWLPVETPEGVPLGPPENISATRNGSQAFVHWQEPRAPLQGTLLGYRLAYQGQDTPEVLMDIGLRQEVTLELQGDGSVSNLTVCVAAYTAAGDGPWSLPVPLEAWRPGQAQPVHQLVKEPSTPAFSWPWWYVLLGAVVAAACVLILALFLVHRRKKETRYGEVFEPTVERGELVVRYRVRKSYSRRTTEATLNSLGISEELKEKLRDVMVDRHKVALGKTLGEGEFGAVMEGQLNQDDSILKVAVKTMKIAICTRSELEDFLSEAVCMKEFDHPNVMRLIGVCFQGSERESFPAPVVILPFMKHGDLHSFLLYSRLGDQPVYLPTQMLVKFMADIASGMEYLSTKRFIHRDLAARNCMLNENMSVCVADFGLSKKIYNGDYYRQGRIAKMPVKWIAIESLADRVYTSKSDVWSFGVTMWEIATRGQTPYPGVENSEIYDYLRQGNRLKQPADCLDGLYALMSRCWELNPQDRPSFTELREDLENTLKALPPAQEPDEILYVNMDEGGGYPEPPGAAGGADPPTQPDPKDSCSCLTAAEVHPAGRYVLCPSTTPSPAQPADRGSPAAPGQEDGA
JAK2, sequence (O60674 whole entry, species assumed): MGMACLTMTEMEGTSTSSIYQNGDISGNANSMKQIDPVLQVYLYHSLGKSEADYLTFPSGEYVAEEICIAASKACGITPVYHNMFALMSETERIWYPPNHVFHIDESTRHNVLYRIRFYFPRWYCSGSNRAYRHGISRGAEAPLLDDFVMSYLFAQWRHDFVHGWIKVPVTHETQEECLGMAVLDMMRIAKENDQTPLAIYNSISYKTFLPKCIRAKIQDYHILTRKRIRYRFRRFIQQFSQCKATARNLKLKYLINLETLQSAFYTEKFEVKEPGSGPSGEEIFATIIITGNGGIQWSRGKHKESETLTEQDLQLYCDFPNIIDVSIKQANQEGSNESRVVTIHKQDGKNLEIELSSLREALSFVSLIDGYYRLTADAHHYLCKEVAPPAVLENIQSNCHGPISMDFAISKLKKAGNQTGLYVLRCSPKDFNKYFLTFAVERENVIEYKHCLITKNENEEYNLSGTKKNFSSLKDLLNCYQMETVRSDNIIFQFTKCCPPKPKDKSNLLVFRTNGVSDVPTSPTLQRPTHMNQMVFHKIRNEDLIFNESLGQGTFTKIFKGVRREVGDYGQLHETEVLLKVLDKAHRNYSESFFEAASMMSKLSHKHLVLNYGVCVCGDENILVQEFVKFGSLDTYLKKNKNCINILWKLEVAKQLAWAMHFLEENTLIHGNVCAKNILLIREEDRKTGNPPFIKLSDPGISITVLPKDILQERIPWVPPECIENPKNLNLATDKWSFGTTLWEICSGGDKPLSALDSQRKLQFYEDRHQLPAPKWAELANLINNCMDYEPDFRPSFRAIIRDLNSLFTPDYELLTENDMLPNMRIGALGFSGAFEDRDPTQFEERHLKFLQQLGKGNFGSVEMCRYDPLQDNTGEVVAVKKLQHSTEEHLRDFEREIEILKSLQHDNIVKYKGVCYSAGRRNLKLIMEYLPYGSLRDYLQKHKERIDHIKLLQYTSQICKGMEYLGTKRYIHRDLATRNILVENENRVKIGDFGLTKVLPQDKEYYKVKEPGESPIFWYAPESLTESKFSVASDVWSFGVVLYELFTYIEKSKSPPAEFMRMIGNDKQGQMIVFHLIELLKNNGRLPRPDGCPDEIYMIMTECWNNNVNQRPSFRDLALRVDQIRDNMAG

Row | Compound | IC50 [1] [nM] | GI50 ([2]; Homo sapiens, MDA-MB-231, 72 h) [nM] | GI50 ([3]; Homo sapiens, Hs-578T, 72 h) [nM] | IC50 ([7]; Table 1, read-out: Axl (IC50)) [nM] | IC50 [7, 12] [nM] | further results
1 | CCc1nc(C(N)=O)c(Nc2ccc(N3CCC(N4CCN(C)CC4)CC3)c(OC)c2)nc1NC1CCOCC1 [ASP2215, gilteritinib, reference compound] | 11 to 100 | 3100 to 10000 | 3100 to 10000 | – | – | –
2 | CN1CCC(Nc2nc(Nc3ccc(Oc4ccccc4)cc3)c3c(=O)[nH]cc(Br)c3n2)CC1.Cl [Compound 226, 8-bromo-2-((1-methylpiperidin-4-yl)amino)-4-((4-phenoxyphenyl)amino)pyrido[4,3-d]pyrimidin-5(6H)-one hydrochloride] | 101 to 1000 | – | – | – | – | total metastatic burden and number of larger metastases (medium+large, ≥5 mm diameter) ([4]; 30 mg/kg/day, 4 weeks): significantly suppressed; tumor growth on primary site (mammary fat pad) ([4]; 4 weeks treatment, no different efficacy between groups): inhibition of tumor growth; metastasis into the lung (tumor nodules) ([4]; day 28, compound 226 30 mg/kg/day and/or anti-PD-1 antibody twice/week for 4 weeks): significantly decreased; tolerability (clinical signs) ([5]; B16F10 lung and CT-26 peritoneal metastasis models): well tolerated; lung metastasis in gross lung specimens ([5]; B16F10 model): dramatically inhibited lung metastasis; tumor nodules ([5]; B16F10 model): no tumor nodules; luminescence intensity in the peritoneal cavity ([6]; CT-26 peritoneal metastasis model): drastically reduced; survival of mice ([6]; QD, vehicle mice started to die from day 9): alive during the treatment period
3 | CN1CCC(Nc2nc(Nc3ccc(OC4CCCCC4)cc3)c3c(=O)[nH]cc(Br)c3n2)CC1 [Compound 233, 8-bromo-4-((4-(cyclohexyloxy)phenyl)amino)-2-((1-methylpiperidin-4-yl)amino)pyrido[4,3-d]pyrimidin-5(6H)-one hydrochloride] | 101 to 1000 | – | – | 101 to 1000 | 101 to 1000 | GI50 ([2]; hydrochloride): 3100 to 10000 nM; GI50 ([3]; hydrochloride): 1100 to 3000 nM
4 | CN1CCC(Nc2nc(Nc3ccc(OCC4CCCC4)cc3)c3c(=O)[nH]cc(Br)c3n2)CC1 [Compound 235, 8-bromo-4-((4-(cyclopentylmethoxy)phenyl)amino)-2-((1-methylpiperidin-4-yl)amino)pyrido[4,3-d]pyrimidin-5(6H)-one hydrochloride] | – | 1100 to 3000 | 1100 to 3000 | 101 to 1000 | – | –
5 | CN1CCC(Nc2nc(Nc3ccc(OC4CCCC4)cc3)c3c(=O)[nH]cc(Br)c3n2)CC1.Cl [Compound 237, 8-bromo-4-((4-(cyclopentyloxy)phenyl)amino)-2-((1-methylpiperidin-4-yl)amino)pyrido[4,3-d]pyrimidin-5(6H)-one hydrochloride] | – | 1100 to 3000 | 100 to 1000 | 101 to 1000 | – | inhibition level in Axl-harboring breast cancer cell lines ([2]; compared with references ASP2215 and R428, MDA-MB-231 and Hs578T): greater than those exhibited by reference ASP2215 and R428
6 | CN1CCC(Nc2nc(Nc3ccc(Oc4cccc(F)c4)cc3)c3c(=O)[nH]cc(Br)c3n2)CC1.Cl [Compound 238, 8-bromo-4-((4-(3-fluorophenoxy)phenyl)amino)-2-((1-methylpiperidin-4-yl)amino)pyrido[4,3-d]pyrimidin-5(6H)-one hydrochloride] | 101 to 1000 | – | – | 11 to 100 | 11 to 100 | inhibition of kinase activity of Axl ([7]; result in words): strong inhibition; GI50 ([2]; hydrochloride): 1100 to 3000 nM; GI50 ([3]; hydrochloride): 1100 to 3000 nM; migration of MDA-MB-231 cells [8]: significantly inhibited; invasion of MDA-MB-231 cells [9]: significantly inhibited; average tumor volume [10, 13]: 669±60 mm^3; tumor growth inhibition (TGI) [10, 13]: 59%; tolerability (clinical signs, body weight) ([10]; oral QD 30 mg/kg/day): well tolerated; anti-tumor effect [11]: no anti-tumor effect
7 | CN1CCC(Nc2nc(Nc3ccc(Oc4cccc(F)c4)cc3)c3c(=O)[nH]cc(Br)c3n2)CC1 [Compound 240, 8-bromo-4-((4-(3-fluorophenoxy)phenyl)amino)-2-((1-methylpiperidin-4-yl)amino)pyrido[4,3-d]pyrimidin-5(6H)-one] | 101 to 1000 | – | – | 11 to 100 | 11 to 100 | GI50 [2]: 3100 to 10000 nM; GI50 [3]: 3100 to 10000 nM
8 | CN1CCC(Nc2nc(Nc3ccc(Oc4ccc(F)c(F)c4)cc3)c3c(=O)[nH]cc(Br)c3n2)CC1 [Compound 241, 8-bromo-4-((4-(3,4-difluorophenoxy)phenyl)amino)-2-((1-methylpiperidin-4-yl)amino)pyrido[4,3-d]pyrimidin-5(6H)-one hydrochloride] | 1000 to 10000 | 3100 to 10000 | 3100 to 10000 | 11 to 100 | 11 to 100 | –
9 | Nc1nc(Nc2ccc3c(c2)CC[C@@H](N2CCCC2)CC3)nn1-c1cc2c(nn1)-c1ccccc1CCC2 [Compound R428, reference compound] | 101 to 1000 | 11000 to 30000 | 3100 to 10000 | – | – | –
